Experimental data from patent US7033593B2, “Immunogen comprising an HIV envelope protein, a ligand and H2 peptide” (priority 2000, dated 2006).
Entries after “also recorded” stand apart in the source; their conditions may differ. Read-outs that look alike come from different tables or passages of the source. No end group written: not given here.

Experiments:
[1] = target: T1, sCD4 (Homo sapiens, UniProt P01730); type: binding; conditions: SPR
T1 construct: Soluble CD4 (sCD4) was produced by Progenics, Tarrytown, N.Y; purchased Progenics (provided by the Division of AIDS, NIAID, NIH)

[2] = system: HIV-1 induced syncytia formation; test: HIV-1 induced syncytia formation; type: cell-based; conditions: 50–200 μg/ml
[3] = target: A32-gp120 (89.6 gp120) (Human immunodeficiency virus type 1 group M subtype B, UniProt Q73372); conditions: DP178 pre-incubated with peptide
Text: FIGS. 31A–31F. […] Data are representative of 3 separate experiments performed. Data presented for C4-V389.6P and C4-V3MN are taken from two separate experiments. (FIG. 31F) Schematic.
The gp120 C4 region is centrally located within the CCR5 binding site in the β20–β21 strands of the gp120 bridging sheet (Wyatt et al, J. Virol. 69:5723–5733 (1995)).

[4] = system: CD4-gp140 complex (89.6 gp140 oligomers); conditions: on CD4-gp140 complex
Experimental: FIG. 10C. CD4-gp140 complexes (indicated by arrow) were first formed by injecting soluble 89.6 gp140 oligomers over a CD4-immobilized surface. Then the CCR5 N-terminal peptide (D1) was injected to monitor its binding to CD4-gp140 complexes.
FIG. 10D. An overlay of the binding curves of CCR5 N-terminal peptide, D1, binding to 89.6 gp140 oligomers in the presence and absence of CD4. […] To ensure that all gp140 molecules were bound to CD4, cleaved gp140 proteins were captured on a CD4 immobilized sensor surface (RU=530), and soluble 89.6 gp140 proteins were directly immobilized (RU=3300) on an adjacent flow cell of the same sensor chip.
(§1) SPR biosensor measurements were determined on a BIACORE 3000 (BIACORE Inc., Uppsala, Sweden) instrument. […] Binding of proteins and peptides was monitored in real-time at 25° C. and with a continuous flow of PBS, pH 7.4 at […]. Analyte (proteins and peptides) were removed and the sensor surfaces were regenerated following each cycle of binding by single or duplicate […] of regeneration solution (10 mM glycine-HCl, pH 2.5 or 10 mM NaOH).
(§2) All analyses were performed using the non-linear fit method of O'Shannessy et al. (O'Shannessy et al, Anal. Biochem. 205:132–136 (1992)) and the BIAevaluation 3.0 software (BIACORE Inc). Rate and equilibrium constants were derived from curve fitting to the Langmuir equation for a simple bimolecular interaction (A+B=AB).

[5] = target: cleaved gp140 oligomers (HIV 89.6) (Human immunodeficiency virus type 1 group M subtype B, UniProt Q73372); test: biochemical; type: binding
[6] = target: HIV-1 Env 89.6 gp120 (Human immunodeficiency virus type 1 group M subtype B, UniProt Q73372); test: biochemical; type: binding, HIV-1 89.6
[7] = target: sCD4-gp120 (HIV 89.6 gp120) (Human immunodeficiency virus type 1 group M subtype B, UniProt Q73372); type: binding
[8] = system: T8-gp140 (HIV 89.6 gp140); conditions: SPR
Experimental: FIG. 14A. […] FIGS. 14B and 14C. […] After stabilization of gp140 capture, either the 19b (anti-gp120 V3) or 2F5 (anti-gp41) antibodies (300 μg/ml) were injected to assess the relative amounts of gp120 and gp41 on both surfaces. FIGS. 14D–14F.
(§3) A blank chip served as an in-line reference surface for subtraction of non-specific binding and bulk responses.
(§4) Surface Plasmon Resonance Biosensor Measurements. SPR biosensor measurements were determined on a BIACORE 3000 (BIACORE Inc., Uppsala, Sweden) instrument. […] A blank in-line reference surface (activated and de-activated for amine coupling) was used to subtract non-specific or bulk responses. Binding of proteins and peptides (biotinylated or free DP178, T649Q26L, DP178-scrambled) was monitored in real-time at 25° C. with a continuous flow of PBS (150 mM NaCl, 0.005% surfactant p20), pH 7.4 at 10–30 μl/min. Analyte (proteins and peptides) were removed and the sensor surfaces were regenerated following each cycle of binding by single or duplicate 5–10 μl pulses of regeneration solution (10 mM glycine-HCl, pH 2.5 or 10 mM NaOH).

[9] = system: sCD4-gp140 (HIV 89.6 gp140); test: SPR binding of HR-2 peptides to sCD4-gp140 complex; conditions: SPR
Experimental: as §1, §2, §3, §4

[10] = target: T8-gp120 (HIV 89.6 gp120) (Human immunodeficiency virus type 1 group M subtype B, UniProt Q73372); type: binding; conditions: SPR
[11] = target: sCD4 ligated gp120 in the context of membrane bound envelope; conditions: Hoffman et al 2000; read-out: affinity; cited from earlier work

Sequence of cleaved gp140 oligomers (HIV 89.6) (Q73372 32-681): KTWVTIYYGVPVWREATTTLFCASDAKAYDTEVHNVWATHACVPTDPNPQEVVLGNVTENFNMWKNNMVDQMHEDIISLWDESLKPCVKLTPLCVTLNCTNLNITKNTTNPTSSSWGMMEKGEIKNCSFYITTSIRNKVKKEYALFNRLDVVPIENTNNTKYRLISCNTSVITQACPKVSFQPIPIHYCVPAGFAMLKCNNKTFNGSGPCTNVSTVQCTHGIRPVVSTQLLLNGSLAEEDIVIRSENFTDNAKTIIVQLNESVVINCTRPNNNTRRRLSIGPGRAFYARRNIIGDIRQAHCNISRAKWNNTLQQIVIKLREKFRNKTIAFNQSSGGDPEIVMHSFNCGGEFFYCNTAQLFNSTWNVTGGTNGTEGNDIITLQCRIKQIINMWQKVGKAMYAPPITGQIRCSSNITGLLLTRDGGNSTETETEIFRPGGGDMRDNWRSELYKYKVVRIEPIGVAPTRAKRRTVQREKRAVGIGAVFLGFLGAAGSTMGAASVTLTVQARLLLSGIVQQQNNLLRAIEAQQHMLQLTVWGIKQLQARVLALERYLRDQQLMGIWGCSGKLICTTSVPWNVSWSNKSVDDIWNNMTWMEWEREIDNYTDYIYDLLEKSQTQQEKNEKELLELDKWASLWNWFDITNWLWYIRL
Sequence of HIV-1 Env 89.6 gp120 (Q73372 32-508): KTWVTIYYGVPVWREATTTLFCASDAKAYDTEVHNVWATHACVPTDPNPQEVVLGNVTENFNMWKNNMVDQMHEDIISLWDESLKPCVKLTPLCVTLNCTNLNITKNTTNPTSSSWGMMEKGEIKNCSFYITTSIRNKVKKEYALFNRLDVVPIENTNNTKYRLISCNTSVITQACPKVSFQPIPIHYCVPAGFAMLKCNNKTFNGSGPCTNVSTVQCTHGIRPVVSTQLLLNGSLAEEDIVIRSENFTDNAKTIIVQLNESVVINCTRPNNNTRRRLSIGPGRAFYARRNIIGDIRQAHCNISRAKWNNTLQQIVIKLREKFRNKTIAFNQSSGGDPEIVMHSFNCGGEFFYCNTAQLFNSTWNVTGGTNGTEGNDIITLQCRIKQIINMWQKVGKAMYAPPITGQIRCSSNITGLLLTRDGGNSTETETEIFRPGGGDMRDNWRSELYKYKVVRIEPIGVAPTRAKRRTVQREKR
Sequence of T8-gp140 (HIV 89.6 gp140) (Q73372 32-508): as above
Sequence of T8-gp140 (HIV 89.6 gp140) (Q73372 509-680): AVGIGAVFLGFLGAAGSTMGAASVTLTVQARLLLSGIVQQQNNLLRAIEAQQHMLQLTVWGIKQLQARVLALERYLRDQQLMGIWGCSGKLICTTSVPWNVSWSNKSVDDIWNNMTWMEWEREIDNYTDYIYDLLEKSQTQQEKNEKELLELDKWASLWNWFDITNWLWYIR
Sequence of T8-gp120 (HIV 89.6 gp120) (Q73372 32-508): as the sequence (Q73372 32-508) above
Sequence of sCD4-gp120 (HIV 89.6 gp120) (Q73372 32-508): as above

89.6 gp120: soluble gp120 envelope protein of HIV 89.6 primary isolate (Clade B)
off-rate (kd) ([1]; immobilized CD4): 0.00011 s⁻¹
off-rate ([1]; immobilized sCD4, preliminary studies): 1.1×10^−4 s^1
binding to sCD4 (in words) ([1]; listed as HIV 89.6 gp120): most stable binding to sCD4
binding to sCD4 (in words) ([1]; listed as HIV89.6 gp120): bound sCD4 most avidly

89.6 gp140: HIV 89.6 gp140 envelope, about 50:50 cleaved and uncleaved
binding to sCD4 (in words) [1]: bound sCD4 well

IKQIINMWQKVGKAMYAPPIS [C4]
effect on DP178 inhibition of syncytia formation (in words) [2]: can reverse DP178 inhibition
mean % blocking of DP178 binding to 89.6 gp120 ([3]; n=3): 27%

KQIINMWQEVGKAMYACTRPNYNKRKRIHIGPGRAFYTTK [C4-V3MN]
blocking of DP178 binding (in words) [3]: strong blocking

KQIINMWQEVGKAMYATRPNNNTRERLSIGPGRAFYARR [C4-V389.6]
blocking of DP178 binding (in words) [3]: strong blocking

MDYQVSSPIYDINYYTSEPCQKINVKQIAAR [CCR5-D1]
ka [4]: 9000 M⁻¹ s⁻¹
kd [4]: 0.00256 s⁻¹
Kd ([4]; read-out: apparent Kd): 280 nM
Kd [5]: 1000 nM
binding to cleaved gp140 (in words) ([5]; absence of CD4): Low levels of constitutive binding
kd (off-rate) ([5]; absence of CD4): 0.01 s⁻¹

NNLLRAIEAQQHLLQLTVWGIKQLQARILAVERYLKDQ [DP107]
binding to gp120 bound to CD4 or A32 (in words) [6]: no binding was observed

TRPNNNTRERLSIGPGRAFYARR [V3]
blocking of DP178 binding (in words) [3]: no significant blocking

WMEWDREINNYTSLIHSLIEESQNQLEKNEQELLEL [T649Q26L]
binding to sCD4-gp120 (in words) [7]: specifically induced by sCD4
binding to T8-gp140 surface (in words) [8]: no binding
binding to sCD4-gp140 surface (in words) [9]: much higher binding; also recorded: marked binding
binding to gp120 on T8 mab surface (in words) [10]: neither HR-2 peptide bound

native CCR5: native CCR5 co-receptor, literature value
Kd [11]: 500000 nM
